Laboratory results taken from patent US20080038809A1, “ISOLATED LECTIN POLYPEPTIDES CONSISTING OF TRUNCATED […] UDP-GalNAc:POLYPEPTIDE N- ACETYLGALACTOSAMINYLTRANSFERASES” (GLYCOZYM APS, priority 2002, published 2008).
Entries after “also recorded” stand apart in the source; their conditions may differ.

What was measured:
[1] = test system: cell surface expression of MUC1 in CHO1d1D/MUC1F-clone2 cells; assay: Cell surface expression of MUC1 by immunofluorescence; format: cell-based, Chinese hamster (CHO 1d1D cells); human MUC1; details: 1 mM, cells grown in GalNAc
Method: FIGS. 11A-D are a series of photomicrographs (left to right from top to bottom of) anti-MUC1 antibody immunofluorescence staining of CHO 1d1D cells stably transfected with a full coding cell surface MUC1 (CHO1d1D/MUC1F-clone2). Cell grown in the presence of GalNAc were treated with the O-glycosylation inhibitor GalNAcα-benzyl or control GlcNAcα-benzyl. Cells were grown in plates and stained without permeabilization as described in Example 4.
We therefore investigated the effect of treatment with GalNAcα-benzyl of CHO1d1D/MUC1F-clone2 cells grown in the presence of GalNAc. CHO1d1D/MUC1F-clone2 cells were seeded in 6 well plates at a density of 0.2×10^6 per well and were grown for 6 hours in Hams F12 medium with serum until approximately 30% subconfluent. […] After 18 hours, the medium was replaced with fresh Optimem containing the sugars and benzyl derivatives as above and grown for 12-48 hours. Initially we analyzed surface expression of MUC1 by immunocytology. Cells were washed once in PBS-CMF (phosphate buffered saline Calcium and Magnesium free) after carefully removing the medium from the wells and subsequently fixed in 2 ml 3% paraformaldehyde at 25° C. for 20 min followed by three washes with PBS-CMF 3 times. […]

[2] = test system: GalNAc-T2 and -T4 secreted soluble enzymes as well as lectin domains; assay: Inhibition of GalNAc-transferase lectin binding to GalNAc-glycopeptides, statements on GalNAc-T2 and -T4 together; design: species or system human; details: enzymes and isolated lectins
Method: Direct binding ELISA assay was developed as follows: Polystyrene microtiter plates (Maxisorb, Nunc, Denmark) were coated with peptides or enzymatically glycosylated glycopeptides in PBS overnight at 4° C. Plates were washed and blocked with 0.1% Tween20 and 0.2% BSA in PBS for 1 h at room temperature, followed by incubation with biotinylated proteins in PBS with 0.05% Tween20 for 2 h at room temperature. After four washes with PBS, plates were incubated with 1:2,000 dilution streptavidin-HRP (Sigma) in PBS for 30 min at room temperature and washed four times with PBS. Development was performed with 0.5 mg/ml o-phenylenediamine and 0.02% H2O2 at room temperature for 15 min, and reaction stopped by adding 100 μl/well of 0.5 N H2SO4. Competitive inhibition assays were done at end-point titers of GalNAc-transferase proteins with one hour preincubations with inhibitor.
Lectins and antibodies to carbohydrates usually recognize the anomeric configuration of the sugar structures they bind.
Inhibition experiments were used to further define the binding specificity of GalNAc-T2 and -T4 secreted soluble enzymes as well as lectin domains compared to Helix Pomatia lectin (Table IV).

[3] = test system: secreted MUC1, wild type CHO/MUC1sol-cloneC4; assay: MUC1 secretion by western blot of medium; format: cell-based, Chinese hamster (CHO cells); human MUC1; details: 1-2 mM
Text: Because GalNAcα-benzyl exerts separate effects on O-glycan processing and mucin expression, the use of the novel selective inhibitor of mucin expression, GalNAcβ-benzyl, allow analysis of mucin expression and secretion in different cell line models. Examples of human cell lines (available from ATCC, USA) expressing and secreting mucins are without limitations LS174T, HT29, Colo205, CALU, MCF7, T47D, NCI-H292, and A549. Most human adenocarcinoma cell lines express and secret mucins and analysis with antibodies to detect protein expression or probes to detect mRNA can reveal the types and quantities of mucins. […] This and other cell lines can be used to treat with 2 mM GalNAcβ-benzyl. In this Example we used wild type CHO/MUC1sol-cloneC4 and western blot analysis of medium of cells treated with 1-2 mM GalNAcα-benzyl, GalNAcβ-benzyl, or the control GlcNAcα-benzyl. […] The inhibitory effect on mucin secretion can be quantified by a number of assays known to the skilled in the art including western blot, ELISA, gelfiltration, immunocapture, and other assays.

[4] = test system: MUC5AC in HT-29 MTX cells; assay: MUC5AC secretion, SDS-PAGE western blot of media with LUM5-1 (FIG. 17); format: cell-based, human; details: 5 mM, continuous culture, media at 14 days
Method: FIG. 17 illustrates SDS-PAGE Western analysis of MUC5AC secretion from HT29MTX cells using polyclonal anti-MUC5AC antibody LUM5-1. In order to evaluate GalNAcβ-benzyl as an inhibitor of mucin glycosylation and secretion we used the HT-29 metotrexate (MTX) cultured colon carcinoma cells of mucin secreting phenotype. HT-29 MTX cells have a goblet cell like phenotype with constitutive production of MUC5AC. Cells were continuously grown up to 21 days in the presence of 5 mM GalNAcα-benzyl, 5 mM GalNAcβ-benzyl, 5 mM GlcNAcα-benzyl and without inhibitor. […] In striking contrast, MUC5AC was not detected in the media from cells treated with GalNAcα-benzyl (Lane 3) or GalNAcβ-benzyl (Lane 4). Results shown are from media collected at 14 days.
In order to evaluate GalNAcβ-benzyl as an inhibitor of mucin glycosylation and secretion we used the cultured colon carcinoma cells of mucin secreting phenotypes: HT-29 metotrexate (MTX) cells selected from the HT-29 cell line by culture in the presence of MTX (kind gift from G. Huet, France). The HT-29 MTX cells were selected to yield a goblet cell like phenotype with constitutive production of MUC5AC. In order to ensure proper goblet cell differentiation the HT29MTX cell line were continuously grown up to 21 days in the presence of 5 mM GalNAcα-benzyl, 5 mM GalNAcβ-benzyl, 5 mM GlcNAcα-benzyl and without inhibitor using culture conditions as described in Hennebicq-Reig et al. (Permanent exposure of mucin-secreting HT-29 cells to benzyl-N-acetyl-alpha-D-galactosaminide induces abnormal O-glycosylation of mucins and inhibits constitutive and stimulated MUC5AC secretion. Biochem J. 1998; 334:283-95). […] Furthermore the viscosity of the media from cells with and without inhibitor was evaluated using viscosity micro-measurement.

| inhibition of GalNAc-T2 and -T4 lectin mediated binding, in words [2] | SMILES | inhibition of cell surface expression of MUC1 [1] | inhibition of secreted MUC1 [3] | MUC5AC in media (secretion) [4] | MUC5AC in media (secretion) ([4]; listed as GalNAcα-benzyl) |
| --- | --- | --- | --- | --- | --- |
|  | CC(=O)N[C@H]1[C@@H](OCc2ccccc2)O[C@H](CO)[C@@H](O)[C@@H]1O [GlcNAcα-benzyl] | no inhibition |  |  |  |
| equal inhibition | CC(=O)N[C@H]1[C@H](OCc2ccccc2)O[C@H](CO)[C@H](O)[C@@H]1O [GalNAcβ-benzyl] |  | inhibition of secreted MUC1 | diminished secretion; also recorded: not detected |  |
| equal inhibition | CC(=O)N[C@H]1[C@@H](OCc2ccccc2)O[C@H](CO)[C@H](O)[C@@H]1O [BzlαGalNAc, benzyl-N-acetyl-alpha-D-galactosaminide] |  |  |  | diminished secretion; also recorded: not detected |
|  | CC(=O)N[C@H]1[C@@H](OCc2ccccc2)O[C@H](CO)[C@H](O)[C@@H]1O [GalNAcα-benzyl, benzyl-N-acetyl-alpha-D-galactosaminide] | strong inhibition of cell surface expression of MUC1 | inhibition of secreted MUC1 |  |  |
